This is an account of results in patent US10092491B2, “Skin renewal enhancer” (priority 2015, dated 2018).

Structures are written as SMILES.

The nature of the data set: Solubilization in anhydrous polar solvents. Type of data set: physicochemical. Particulars: 25° C. Here is the method: It was unexpectedly discovered that both hydroxy acids and urea can be fully solubilized in anhydrous solvent at concentrations suitable for use as a chemical peel. Illustratively, for a peeling activity in the provided compositions and systems the hydroxy acid and urea must be present at a concentration of 8-10% or greater, with much greater efficacy at 10% or greater. It was discovered that anhydrous polar solvents can fully solubilize (i.e. no observable haze at 25° C.) both hydroxy acids and urea up to concentrations of 25%, thereby allowing significant efficacy when applied to the skin. The use of anhydrous glycerin (as one example) alone or optionally with or substituted by other anhydrous polar solvents (e.g. anhydrous polar solvents such as propylene glycol, butylene glycol, dimethylisosorbide, etc.) allows for the elimination of water and the prevention of the “burn” experienced in prior systems.

In the case of `NC(N)=O` [urea], the “concentration fully solubilized (no observable haze)” value is at most 25%.
